Results from publication PMC5624946, “Extrapyramidal side effects of antipsychotics are linked to their association kinetics at dopamine D2 receptors” (Nature Communications, 2017).
pKd, pKi: −log10 of the molar value. Where a name gives a salt, the structure may show the parent alone. Read-outs that look alike come from different tables or passages of the source.

Experiments:
human D2L receptors [1] = biological target: T1, human D2L receptors (Homo sapiens, UniProt P14416); test: Competition kinetic binding with PPHT-red tracer (TR-FRET, Motulsky-Mahan); conditions: for t 1/2: dissociation half-life from k off
human D2L receptors [2] = biological target: T1, human D2L receptors; test: biochemical
human D2L receptors [3] = biological target: T1, human D2L receptors; test: Equilibrium competition binding with PPHT-red (TR-FRET)
human D2L receptors [4] = biological target: T1, human D2L receptors
D2R = D2R (Homo sapiens, UniProt P14416); test: biochemical
[5] = cited from earlier work
[6] = clinical; cited from earlier work
[7] = 37 °C, 100 μM GppNHp, 12.5 nM PPHT-red tracer, CHO-D2L membranes, mean ± s.e.m., four experiments

T1 sequence (P14416 whole entry): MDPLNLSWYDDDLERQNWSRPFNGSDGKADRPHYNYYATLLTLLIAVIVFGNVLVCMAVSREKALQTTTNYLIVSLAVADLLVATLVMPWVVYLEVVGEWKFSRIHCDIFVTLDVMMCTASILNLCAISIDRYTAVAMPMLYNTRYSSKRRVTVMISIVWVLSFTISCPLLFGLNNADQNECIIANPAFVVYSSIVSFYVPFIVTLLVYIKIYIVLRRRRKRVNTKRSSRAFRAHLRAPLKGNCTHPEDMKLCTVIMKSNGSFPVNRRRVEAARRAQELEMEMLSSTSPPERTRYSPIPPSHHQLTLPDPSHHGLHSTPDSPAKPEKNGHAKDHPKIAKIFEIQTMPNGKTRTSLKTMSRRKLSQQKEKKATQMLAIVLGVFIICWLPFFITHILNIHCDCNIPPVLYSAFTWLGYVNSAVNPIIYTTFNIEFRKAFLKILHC
Sequence of D2R (P14416 whole entry): as above

Row | t 1/2 (human D2L receptors [1]) | pKd (human D2L receptors [2]) | pKi (human D2L receptors [3]) | Molecule | further results
1 | 0.75 min |  |  | CN1CC2c3ccccc3Oc3ccc(Cl)cc3C2C1 (centres unmarked) [Asenapine, asenapine maleate] | 
2 | 1.82 min | 9.71 | 9.99 | O=C(CCCN1CC=C(n2c(=O)[nH]c3ccccc32)CC1)c1ccc(F)cc1 [Droperidol, droperidol] | k off (human D2L receptors [1]; [7]): 0.00633 ± 0.00067 s⁻¹; k on (human D2L receptors [1]; [7]): 2.01 ± 0.38 × 10^9 M^−1 min^−1
3 |  | 9.67 | 9.68 | OCCN1CCN(CCC=C2c3ccccc3Sc3ccc(C(F)(F)F)cc32)CC1 [Flupenthixol, flupenthixol dihydrochloride] | t 1/2 (human D2L receptors [4]): 9.63 min; k off (human D2L receptors [1]): 0.0012 ± 0.000167 s⁻¹; k on (human D2L receptors [1]): 3.50 ± 0.72 × 10^8 M^−1 min^−1
4 | 17.33 min |  |  | OCCN1CCN(CCCN2c3ccccc3Sc3ccc(C(F)(F)F)cc32)CC1 [Fluphenazine, fluphenazine dihydrochloride] | 
5 | 0.32 min |  |  | CN1CCN(C2=Nc3ccccc3Oc3ccc(Cl)cc32)CC1 [Loxapine, loxapine succinate] | 
6 | 0.41 min | 7.69 | 7.57 | CCc1c(C)[nH]c2c1C(=O)C(CN1CCOCC1)CC2 (centres unmarked) [Molindone, molindone hydrochloride] | k off (D2R): 0.0282 s⁻¹; k off (human D2L receptors [1]; [7]): 0.0282 ± 0.0075 s⁻¹; k on (human D2L receptors [1]; [7]): 8.69 ± 2.6 × 10^7 M^−1 min^−1
7 | 38.50 min |  |  | CNc1cc(OC)c(C(=O)NC2CCN(Cc3ccccc3)C2C)cc1Cl (centres unmarked) [Nemonapride, nemonapride] | 
8 | 1.58 min | 8.60 | 8.54 | Cc1nc2n(c(=O)c1CCN1CCC(c3noc4cc(F)ccc34)CC1)CCCC2O (centres unmarked) [Paliperidone, paliperidone] | k off (D2R): 0.0075 s⁻¹; k off (human D2L receptors [1]; [7]): 0.00733 ± 0.00067 s⁻¹; k on (human D2L receptors [1]; [7]): 1.80 ± 0.29 × 10^8 M^−1 min^−1
9 | 3.01 min | 9.73 | 9.53 | OCCN1CCN(CCCN2c3ccccc3Sc3ccc(Cl)cc32)CC1 [Perphenazine, perphenazine] | k off (human D2L receptors [1]; [7]): 0.00383 ± 0.00033 s⁻¹; k on (human D2L receptors [1]; [7]): 1.29 ± 0.17 × 10^9 M^−1 min^−1
10 |  |  |  | OCCOCCN1CCN(C2=Nc3ccccc3Sc3ccccc32)CC1 [Quetiapine, quetiapine hemifumarate] | plasma half-life, in words [5]: short
11 | 1.31 min |  |  | CCN1CCC[C@H]1CNC(=O)c1c(O)c(Cl)cc(Cl)c1OC [Raclopride, raclopride] | 
12 | 1.17 min |  |  | O=C1NCCN1CCN1CCC(c2cn(-c3ccc(F)cc3)c3ccc(Cl)cc23)CC1 [Sertindole, sertindole] | 
13 | 18.24 min |  |  | O=C(CCCN1CCC2(CC1)C(=O)NCN2c1ccccc1)c1ccc(F)cc1 [Spiperone, spiperone] | 
14 | 3.15 min | 9.69 | 9.48 | CN1CCN(CCCN2c3ccccc3Sc3ccc(C(F)(F)F)cc32)CC1 [Trifluoperazine, trifluoperazine dihydrochloride] | k off (human D2L receptors [4]): 0.00367 ± 0.00017 s⁻¹; k on (human D2L receptors [4]): 1.10 ± 0.20 × 10^9 M^−1 min^−1
15 | 0.65 min |  |  | O=C1Cc2cc(CCN3CCN(c4nsc5ccccc45)CC3)c(Cl)cc2N1 [Ziprasidone, ziprasidone hydrochloride monohydrate] | 
16 | 0.49 min |  |  | CN(C)CCOC1=Cc2ccccc2Sc2ccc(Cl)cc21 [Zotepine, zotepine] | 
17 |  |  |  | O=C1CCc2ccc(OCCCCN3CCN(c4cccc(Cl)c4Cl)CC3)cc2N1 [aripiprazole] | propensity to cause prolactin release, in words [6]: very little propensity to cause prolactin release
18 |  |  |  | (+)-butaclamol [(+)Butaclamol] | t 1/2 (human D2L receptors [4]): 26.65 min
